According to patent US8703467B2 (priority 2004, dated 2014):
Where two headings read alike, the source gives them in different places.

Test system: mice
Description: A formalin-inactivated and a double-inactivated (formalin+UV-irradiation) RRV candidate vaccine was adjusted to 10 μg per dose, and then diluted in 4 fold steps. Each dilution was injected into a group of 10 mice. After 3 weeks the mice were boostered with the corresponding amount of the vaccine. Blood samples were drawn at week 3, before the booster, and at week 6, 3 weeks after the booster. The sera were analyzed by a RRV antibody ELISA. The effective dose 50 (ED50), this is the antigen dose which is sufficient to induce seroconversion in 50% of the immunized mice, was then calculated.

In the case of Formalin, the “number of mice with ELISA-Titer 10^1” value (Week 3, N 60) is reported as 8, the “number of mice with ELISA-Titer 10^2” value (Week 3, N 60) is reported as 8 and the “number of mice with ELISA-Titer 10^3” value (Week 3, N 60) is reported as 9. The “number of mice with ELISA-Titer 10^4” value (Week 3, N 60) was 0, the “number of mice with ELISA-Titer 10^5” value (Week 3, N 60) was 0 and the “number of mice with ELISA-Titer 10^6” value (Week 3, N 60) was 0. The “number of mice with ELISA-Titer 10^7” value (Week 3, N 60) was 0, the “number of mice with ELISA-Titer 10^8” value (Week 3, N 60) was 0 and the “number of mice with ELISA-Titer <10^1” value (Week 3, N 60) was 35. For the same substance, the “number of mice with ELISA-Titer 10^4” value (Week 3, N 60, listed as formalin group) was “no mouse”, the “number of mice with ELISA-Titer 10^1” value (Week 6, after booster, N 60) was 7 and the “number of mice with ELISA-Titer 10^2” value (Week 6, after booster, N 60) was 5. For the same substance, the “number of mice with ELISA-Titer 10^3” value (Week 6, after booster, N 60) was 15, the “number of mice with ELISA-Titer 10^4” value (Week 6, after booster, N 60) was 11 and the “number of mice with ELISA-Titer 10^5” value (Week 6, after booster, N 60) was 8. For the same substance, the “number of mice with ELISA-Titer 10^6” value (Week 6, after booster, N 60) was 0, the “number of mice with ELISA-Titer 10^7” value (Week 6, after booster, N 60) was 0 and the “number of mice with ELISA-Titer 10^8” value (Week 6, after booster, N 60) was 0. For the same substance, the “number of mice with ELISA-Titer <10^1” value (Week 6, after booster, N 60) was 14, the “ED50 Week 6 (Booster)” value (mice, 3 weeks after the booster) was 33 ng and the “ED50 Week 3” value (mice, before the booster, antigen dose inducing seroconversion in 50% of immunized mice) was 635 ng.
